Test [1] concerns the target wild-type HIV protease (Human immunodeficiency virus type 1 group M subtype B, UniProt P04585). The test is described as follows: biochemical.
Test [2] relates to wild-type HIV. The test is described as follows: wild-type antiretroviral activity (Table 4). The following applies: Human immunodeficiency virus 1, read-out: ID50.
Test [3] relates to HIV-1LAI. Nature of the test: PHA-PBMC assay, p24 Gag protein production. It is filed as cell-based. The note with it: Human immunodeficiency virus 1; HIV-1LAI, SI; PHA-PBMC, p24 (Table 3).
Test [4] has as its system HIV-1BAL. Nature of the test: PHA-PBMC assay, p24 Gag protein production. It is filed as cell-based. The note with it: Human immunodeficiency virus 1; HIV-1BAL, NSI; PHA-PBMC, p24 (Table 3).
The test system of test [5] is HIV-1ERS104pre. Nature of the test: PHA-PBMC assay, p24 Gag protein production. It is filed as cell-based. The following applies: Human immunodeficiency virus 1; HIV-1ERS104pre, SI; PHA-PBMC, p24. Here is the method:
(§1) The patient profiles are shown below in Table 2.
(§2) To determine protease inhibitory activity against multidrug resistant HIV, the IC50's were measured against a panel of clinically isolated mutant HIV isolates.
(§3) All drug sensitivities were performed in triplicate. In order to determine whether the HIV isolates were syncitium inducing (SI) or non-syncitium inducing (NSI), an aliquot of viral stock supernatant, containing 100 TCID50, was cultured with 1×10^5 MT-2 cells in a 12-well plate. Cultures were maintained for four weeks and were examined for syncytium formation twice a week.

Test [6] relates to multidrug-resistant HIV-1 clinical isolate, patient 1. The test is described as follows: PHA-PBMC assay, p24 Gag protein production. The note with it: Human immunodeficiency virus 1; Patient/Isolate code 1; PHA-PBMC, p24. It is filed as cell-based. How it is done:
as §1, §2, §3

Test [7] has as its system multidrug-resistant HIV-1 clinical isolate, patient 2. The test is described as follows: PHA-PBMC assay, p24 Gag protein production. It is filed as cell-based. The following applies: Human immunodeficiency virus 1; Patient/Isolate code 2; PHA-PBMC, p24. How it is done:
as §1, §2, §3

Test [8] concerns multidrug-resistant HIV-1 clinical isolate, patient 3. The test is described as follows: PHA-PBMC assay, p24 Gag protein production. It is filed as cell-based. The following applies: Human immunodeficiency virus 1; Patient/Isolate code 3; PHA-PBMC, p24. Here is the method:
as §1, §2, §3

Test [9] concerns multidrug-resistant HIV-1 clinical isolate, patient 4. The test is described as follows: PHA-PBMC assay, p24 Gag protein production. It is filed as cell-based. The following applies: Human immunodeficiency virus 1; Patient/Isolate code 4; PHA-PBMC, p24. How it is done: as §1, §2, §3
Test [10] deals with multidrug-resistant HIV-1 clinical isolate, patient 5. Nature of the test: PHA-PBMC assay, p24 Gag protein production. It is filed as cell-based. The following applies: Human immunodeficiency virus 1; Patient/Isolate code 5; PHA-PBMC, p24. How it is done: as §1, §2, §3
Test [11] deals with multidrug-resistant HIV-1 clinical isolate, patient 6. Nature of the test: PHA-PBMC assay, p24 Gag protein production. It is filed as cell-based. The following applies: Human immunodeficiency virus 1; Patient/Isolate code 6; PHA-PBMC, p24. Here is the method:
as §1, §2, §3

For test [12], the system named is multidrug-resistant HIV-1 clinical isolate, patient 7. Nature of the test: PHA-PBMC assay, p24 Gag protein production. It is filed as cell-based. The following applies: Human immunodeficiency virus 1; Patient/Isolate code 7; PHA-PBMC, p24. How it is done: as §1, §2, §3
Test [13] has as its system multidrug-resistant HIV-1 clinical isolate, patient 8. Nature of the test: PHA-PBMC assay, p24 Gag protein production. It is filed as cell-based. The note with it: Human immunodeficiency virus 1; Patient/Isolate code 8; PHA-PBMC, p24. Here is the method: as §1, §2, §3
The subject of test [14] is multidrug-resistant HIV-1 clinical isolate, patient 10. The test is described as follows: microbe, parasite or virus in culture. It is filed as cell-based. The following applies: Human immunodeficiency virus 1; Patient Isolate 10. Here is the method: (§4) The mutant multidrug-resistant HIV-1 strains corresponding to each patient, numbered 9-35, were genetically analyzed in terms of the nucleic acid sequences of the protease (PR) and a portion of the reverse transcriptase (RT) genes from which mutations in these enzymes were determined. The mutations in the protease and reverse transcriptase of the multidrug-resistant viruses isolated from each patient are shown below in Table 9b.

For test [15], the system named is multidrug-resistant HIV-1 clinical isolate, patient 11. Nature of the test: microbe, parasite or virus in culture. The note with it: Human immunodeficiency virus 1; Patient Isolate 11. It is filed as cell-based. Here is the method: as §4
In test [16] the test system is multidrug-resistant HIV-1 clinical isolate, patient 12. Nature of the test: microbe, parasite or virus in culture. It is filed as cell-based. The following applies: Human immunodeficiency virus 1; Patient Isolate 12. How it is done:
as §4

For test [17], the system named is multidrug-resistant HIV-1 clinical isolate, patient 13. Nature of the test: microbe, parasite or virus in culture. It is filed as cell-based. The following applies: Human immunodeficiency virus 1; Patient Isolate 13. How it is done: as §4
In test [18] the test system is multidrug-resistant HIV-1 clinical isolate, patient 14. The test is described as follows: microbe, parasite or virus in culture. It is filed as cell-based. The following applies: Human immunodeficiency virus 1; Patient Isolate 14. How it is done:
as §4

Test [19] relates to multidrug-resistant HIV-1 clinical isolate, patient 15. Nature of the test: microbe, parasite or virus in culture. The following applies: Human immunodeficiency virus 1; Patient Isolate 15. It is filed as cell-based. Here is the method: as §4
The subject of test [20] is multidrug-resistant HIV-1 clinical isolate, patient 16. The test is described as follows: microbe, parasite or virus in culture. It is filed as cell-based. The note with it: Human immunodeficiency virus 1; Patient Isolate 16. Here is the method:
as §4

The test system of test [21] is multidrug-resistant HIV-1 clinical isolate, patient 17. The test is described as follows: microbe, parasite or virus in culture. It is filed as cell-based. The following applies: Human immunodeficiency virus 1; Patient Isolate 17. How it is done: as §4
Test [22] relates to multidrug-resistant HIV-1 clinical isolate, patient 18. The test is described as follows: microbe, parasite or virus in culture. It is filed as cell-based. The following applies: Human immunodeficiency virus 1; Patient Isolate 18. Here is the method:
as §4

The test system of test [23] is multidrug-resistant HIV-1 clinical isolate, patient 19. Nature of the test: microbe, parasite or virus in culture. It is filed as cell-based. The note with it: Human immunodeficiency virus 1; Patient Isolate 19. Here is the method:
as §4

The subject of test [24] is multidrug-resistant HIV-1 clinical isolate, patient 20. Nature of the test: microbe, parasite or virus in culture. The following applies: Human immunodeficiency virus 1; Patient Isolate 20. It is filed as cell-based. Here is the method:
as §4

Test [25] deals with multidrug-resistant HIV-1 clinical isolate, patient 21. The test is described as follows: microbe, parasite or virus in culture. It is filed as cell-based. The following applies: Human immunodeficiency virus 1; Patient Isolate 21. Here is the method: as §4
Test [26] concerns multidrug-resistant HIV-1 clinical isolate, patient 23. Nature of the test: microbe, parasite or virus in culture. The following applies: Human immunodeficiency virus 1; Patient Isolate 23. It is filed as cell-based. Here is the method:
as §4

The subject of test [27] is multidrug-resistant HIV-1 clinical isolate, patient 27. Nature of the test: microbe, parasite or virus in culture. The note with it: Human immunodeficiency virus 1; Patient Isolate 27. It is filed as cell-based. Here is the method: as §4
In test [28] the test system is multidrug-resistant HIV-1 clinical isolate, patient 28. Nature of the test: microbe, parasite or virus in culture. It is filed as cell-based. The note with it: Human immunodeficiency virus 1; Patient Isolate 28. How it is done: as §4
Test [29] deals with multidrug-resistant HIV-1 clinical isolate, patient 29. The test is described as follows: microbe, parasite or virus in culture. It is filed as cell-based. The following applies: Human immunodeficiency virus 1; Patient Isolate 29. How it is done:
as §4

The subject of test [30] is multidrug-resistant HIV-1 clinical isolate, patient 30. Nature of the test: microbe, parasite or virus in culture. It is filed as cell-based. The note with it: Human immunodeficiency virus 1; Patient Isolate 30. How it is done:
as §4

The subject of test [31] is multidrug-resistant HIV-1 clinical isolate, patient 31. Nature of the test: microbe, parasite or virus in culture. It is filed as cell-based. The following applies: Human immunodeficiency virus 1; Patient Isolate 31. Here is the method:
as §4

Test [32] has as its system multidrug-resistant HIV-1 clinical isolate, patient 32. The test is described as follows: microbe, parasite or virus in culture. The following applies: Human immunodeficiency virus 1; Patient Isolate 32. It is filed as cell-based. How it is done:
as §4

Test [33] has as its system multidrug-resistant HIV-1 clinical isolate, patient 33. Nature of the test: microbe, parasite or virus in culture. The note with it: Human immunodeficiency virus 1; Patient Isolate 33. It is filed as cell-based. Here is the method:
as §4

Test [34] relates to multidrug-resistant HIV-1 clinical isolate, patient 35. Nature of the test: microbe, parasite or virus in culture. It is filed as cell-based. The note with it: Human immunodeficiency virus 1; Patient Isolate 35. How it is done:
as §4

The test system of test [35] is multidrug-resistant HIV-1 clinical isolate, patient 9. Nature of the test: microbe, parasite or virus in culture. It is filed as cell-based. The note with it: Human immunodeficiency virus 1; Patient Isolate 9. Here is the method:
as §4

For test [36], the system named is multidrug-resistant HIV-1 clinical isolate, patient 22. The test is described as follows: IC50 against multidrug-resistant clinical isolates (Table 9a). It is filed as cell-based. The note with it: Human immunodeficiency virus 1. How it is done:
as §4

For test [37], the system named is multidrug-resistant HIV-1 clinical isolate, patient 34. Described as above. It is filed as cell-based. The note with it: Human immunodeficiency virus 1. How it is done:
as §4

The test system of test [38] is wild-type HIV-1 (WT). Nature of the test: IC50 against wild-type HIV-1 (Table 9a). It is filed as cell-based. The note with it: Human immunodeficiency virus 1; (WT).
The subject of test [39] is multidrug-resistant strains of HIV-1. The test is described as follows: PHA-PBMC p24 assay, panel of eight multidrug-resistant clinical isolates. The following applies: eight multidrug-resistant clinical isolates of Table 3. It is filed as cell-based. Here is the method:
as §1, §2, §3

Each structure is given as a SMILES string.

The results in this text go back to US9889115B2, “Fitness assay and associated methods” (priority 1998, dated 2018).

Broadly, the Ki is the equilibrium dissociation constant of an inhibitor or competing ligand from its target. The low end stands for higher affinity, the high end for lower affinity. Consider `COc1ccc(S(=O)(=O)N(CC(C)C)CC(O)C(Cc2ccccc2)NC(=O)OC2COC3OCCCC23)cc1` (centres unmarked), for which, in [1], the affinity corresponds to a Ki of 2.2 nM. Moreover, the IC50 in [2] was 4.5 nM.
On the same counts, the results for `Cc1ccc(S(=O)(=O)N(CC(C)C)CC(O)C(Cc2ccccc2)NC(=O)OC2COC3OCCC23)cc1` (centres unmarked) are 1.2 nM and 3.5 nM.
Turning to `CC(C)c1nc(CN(C)C(=O)N[C@H](C(=O)N[C@@H](Cc2ccccc2)C[C@H](O)[C@H](Cc2ccccc2)NC(=O)OCc2cncs2)C(C)C)cs1` [RTV, Ritonavir], the IC50 in test [3] is 4.7 nM; in test [4], 18 nM; in test [5], 55 nM; in test [6], over 1000 nM; in test [7] it was over 1000 nM; in test [8] it was over 1000 nM. Also, the IC50 in test [9] was over 1000 nM; in [10], over 1000 nM; in test [11] it was over 1000 nM; in [12], over 1000 nM; in test [13], over 1000 nM; in [14], 2030 nM. For the same molecule, the IC50 is 10 nM in [15]; 2470 nM in [16]; 1640 nM in [17]; 40 nM in test [18]; 1140 nM in test [19]; 1340 nM in test [20]. For the same molecule, the IC50 in test [21] is 870 nM; in test [22], 3020 nM; in test [23] it was 2940 nM; in test [24] it was 1900 nM; in test [25], 2180 nM; in test [26] it was 1820 nM. Besides, the IC50 came out at 2970 nM in test [27]; 2660 nM in test [28]; 360 nM in test [29]; 1030 nM in test [30]; 850 nM in test [31]; 370 nM in [32]. Besides, the IC50 turned out to be 180 nM in [33]; 2600 nM in test [34]; 530 nM in test [35]; 560 nM in test [36]; 3380 nM in test [37]; 19 nM in [38]. Further, the “potency against the multidrug-resistant strains (in words)” value in test [39] is “virtually inactive”.
